pIC50: −log10 of the molar value.
How the values were obtained:
p70 S6 Kinase = target: T1, p70 S6 Kinase (Homo sapiens, UniProt P23443, T412E); experiment: p70 S6 Kinase In Vitro Enzyme Assay (Transcreener Kinase ADP-FP); assay type: biochemical; conditions: 25 micromolar ATP; read-out: IC50 against p70 S6 Kinase
T1 construct: amino acids 1-421, T412E; His tag (N)
Description: Compound IC50 values against p70 S6 Kinase target are determined using the p70 S6 Transcreener™ Kinase ADP-FP Assay. This assay assesses the activity of p70 S6 kinase in the presence of compound inhibitors by measuring the concentration of adenosine diphosphate (ADP) formed in a kinase reaction. The kinase reactions (25 μL reaction volumes) are performed in 96-well half-area black polystyrene plates. Adenosine triphosphate (ATP) is added to start the reactions. Final reaction conditions are 10 millimolar N-2-hydroxyethyl-piperazine-N′-2-ethanesulfonic acid (HEPES) pH 7.5, 0.005% TRITON™ X-100, 0.082 millimolar ethyleneglycol tetraacetic acid (EGTA), 1 millimolar dithiothreitol, 10 millimolar magnesium chloride, 4 micromolar substrate peptide, 25 micromolar ATP, active p70 S6 Kinase (Human recombinant, amino acids 1-421, T412E, N-terminal histidine-tagged), 4% DMSO and serial dilutions of compound (diluted 1:3 from 20,000 to 1 nanomolar). […] Quenched reactions are incubated for 4-16 hours, and then read in a Tecan Ultra Evolution plate reader in Fluorescence Polarization mode using polarizing filters of Ex612nm and Em633nm wavelength. […] The IC50 value for each compound is derived using percent inhibition data which is calculated using the micromolar ADP reaction data relative to on-plate controls (active enzyme versus 100 millimolar inhibited enzyme controls). […]

AKT1 = target: T2, AKT1 (Homo sapiens, UniProt P31749); experiment: AKT1 In Vitro Enzyme Assay (Transcreener Kinase ADP-FP); assay type: biochemical; conditions: 20 micromolar ATP; read-out: IC50 against AKT1
T2 construct: His tag; host or cells: insect cells
Description: Compound IC50 values against AKT1 target are determined using the AKT1 Transcreener™ Kinase ADP-FP Assay. This assay assesses the activity of AKT1 in the presence of compound inhibitors by measuring the concentration of ADP formed in a kinase reaction. The kinase reactions (25 μL reaction volumes) are performed in 96-well half-area black polystyrene plates. ATP is added to start the reactions. Final reaction conditions are 56 millimolar HEPES pH 7.4, 0.008% TRITON™ X-100, 5 millimolar magnesium chloride, 30 micromolar Crosstide peptide, 20 micromolar ATP, hAKT1 Human Recombiant, V-AKT Murine Thymoma Viral Oncogene Homolog 1, histidine-tagged, expressed in insect cells, 4% DMSO and serial dilutions of compound (diluted 1:3 from 20,000 to 1 nanomolar). […] Quenched reactions are incubated for 4-16 hours, and then read in a Tecan Ultra Evolution plate reader in Fluorescence Polarization mode using polarizing filters of Ex612nm and Em633nm wavelength. […] The IC50 value for each compound is derived using percent inhibition data which is calculated using the micromolar ADP reaction data relative to on-plate controls (active enzyme versus 100 millimolar inhibited enzyme controls). […]

[1] = test system: Phosphorylation of p70 S6K(T389); experiment: p70 S6K/AKT In Vivo Target Inhibition, U87MG xenograft, p-p70 S6K; design: species or system athymic nude mice; conditions: Mus musculus, U-87 MG, IV Dose 12.5 mpk, U87MG tumors
Description: U87MG human glioblastoma cells (5×106) are subcutaneously implanted into the flank of athymic nude mice in 0.2 mL of matrigel. Two weeks post-implantation, mice are dosed orally or parenterally according to a time course, single dose/single time point, or dose response protocol for the determination of TMED50 (threshold minimum effective dose). Tumors are flash frozen at harvest and blood is collected for the determination of parent compound plasma exposure and the calculation of TMEC50 (threshold minimum effective concentration) in the case of dose response studies. Tumors or tissues are pulverized in liquid N2 and lysed in 400 μL of XY Lysis Buffer (10 μg/mL Leupeptin, 10 μg/mL Trypsin-Chymotrypsin Inhibitor, 10 μg/mL Tosyl phenyl-alanyl chloromethyl ketone, 10 μg/mL Aprotinin, 60 mM Beta-Glycerol Phosphate, 1% Triton X100, 25 mM Tris pH 7.5, 2.5 mM Pyrophosphate, 150 mM NaCl, 2 mM p-tosyl-L-arginine methyl ester, 15 mM para-nitrophenyl phosphate, 5 mM Benzamidine, 1 mM Na Vanadate, 10 mM NaF, 50 μg/mL phenyl-methane sulfonyl fluoride, 1 mM 1,4-Dithiothreitol (DTT), 15 mM EDTA pH 8.0, 5 mM EGTA pH 8.0, 1 μM Microcystin, 1 μM Okadaic Acid, and 1 Roche Complete protease inhibitor mini-tablet per 10 mL) using Lysing Matrix D tubes (MP Biomedicals, Solon, Ohio, cat#6913-500) and a BIO101 Thermo Savant Fast Prep FP12. Lysates are aliquoted and either assayed immediately or stored at −80° C. for later testing. In Vivo Target Inhibition of p70 S6K and AKT is measured utilizing Meso Scale Discovery (Gaithersburg, Md.) ELISA technology to assess effects on phosphorylation of the serine 240/244 site of the downstream effector S6RP. Phosphorylation of p70 S6K(T389), AKT(5473) and GSK3β(S9) is also assessed using this technology in a multiplex format. In summary, 20 μg of lysate is added to carbon electrode containing 96-well plates pre-spotted with the appropriate capture antibodies. The protein of interest is probed using a ruthenium labeled detection antibody. Upon the passage of current over the electrode in the presence of read buffer containing the co-reactant TPA, electro-chemiluminescence results in the generation of light which is quantified and recorded using the MSD Sector 6000 instrument. For each study, percent inhibitions are calculated relative to the vehicle control group and ANOVA analysis is performed using the JMP software package for the determination of statistical significance.

T2 sequence (P31749 whole entry): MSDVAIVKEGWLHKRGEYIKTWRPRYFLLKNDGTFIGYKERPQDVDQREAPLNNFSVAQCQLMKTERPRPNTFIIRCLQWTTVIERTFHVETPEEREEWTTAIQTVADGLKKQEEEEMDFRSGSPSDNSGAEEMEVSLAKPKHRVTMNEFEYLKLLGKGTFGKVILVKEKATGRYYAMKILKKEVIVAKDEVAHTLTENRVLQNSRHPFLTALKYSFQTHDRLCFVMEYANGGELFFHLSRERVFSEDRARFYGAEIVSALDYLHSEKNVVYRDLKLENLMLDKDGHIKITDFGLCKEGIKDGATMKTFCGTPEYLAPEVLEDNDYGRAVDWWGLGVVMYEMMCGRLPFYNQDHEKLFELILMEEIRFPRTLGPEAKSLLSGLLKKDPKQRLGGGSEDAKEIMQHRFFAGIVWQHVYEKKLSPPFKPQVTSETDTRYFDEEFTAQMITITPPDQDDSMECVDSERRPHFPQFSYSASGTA
T1 sequence (P23443 1-421 T412E): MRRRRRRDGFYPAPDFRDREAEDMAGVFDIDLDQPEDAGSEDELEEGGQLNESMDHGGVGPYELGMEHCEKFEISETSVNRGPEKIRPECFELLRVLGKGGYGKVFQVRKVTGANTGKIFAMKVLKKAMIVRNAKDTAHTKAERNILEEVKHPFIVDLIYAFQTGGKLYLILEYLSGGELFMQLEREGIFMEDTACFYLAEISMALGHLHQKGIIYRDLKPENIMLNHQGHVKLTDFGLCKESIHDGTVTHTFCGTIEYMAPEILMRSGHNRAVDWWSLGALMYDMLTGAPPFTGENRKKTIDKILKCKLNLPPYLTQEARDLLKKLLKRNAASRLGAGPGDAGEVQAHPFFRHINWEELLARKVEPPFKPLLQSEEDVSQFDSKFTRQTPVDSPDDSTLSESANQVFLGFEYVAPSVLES

## CN(C)CCn1cc(-c2ccc(F)c(C(F)(F)F)c2)nc1C1CCN(c2ncnc3c2C(C)(C)C(=O)N3)CC1 [Example 31]
p70 S6 Kinase
  pIC50: 8.15
AKT1
  pIC50: 8.22
[1]; 1 hr post IV dose
  inhibition at 12.5 mg/kg: 77.3%
[1]; 2 hr post IV dose
  inhibition at 12.5 mg/kg: 76.1%
[1]; 4 hr post IV dose
  inhibition at 12.5 mg/kg: 76.1%
[1]; 6 hr post IV dose
  inhibition at 12.5 mg/kg: 76.1%
[1]; 8 hr post IV dose
  inhibition at 12.5 mg/kg: 70.7%
[1]; 24 hr post IV dose
  inhibition at 12.5 mg/kg: 61.6%

From patent publication US8148387B2, “AKT and P70 S6 kinase inhibitors” (Eli Lilly and Company, priority 2008, dated 2012)
